#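 GI50 marks 50% less growth. At the TGI there is no net growth.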
# Legend:
# Assay in all cases: NCI-60 cell line screen, 384-well format
# COLO 205 colon = test system: COLO 205 colon
# CAKI-1 renal = test system: CAKI-1 renal
# NCI/ADR-RES ovarian = test system: NCI/ADR-RES ovarian
# HCC-2998 colon = test system: HCC-2998 colon
# RPMI-8226 leukemia = test system: RPMI-8226 leukemia
# UACC-62 melanoma = test system: UACC-62 melanoma
# MDA-MB-468 breast = test system: MDA-MB-468 breast
# MCF7 breast = test system: MCF7 breast
# SF-539 CNS = test system: SF-539 CNS
# HS 578T breast = test system: HS 578T breast
# DU-145 prostate = test system: DU-145 prostate
# SN12C renal = test system: SN12C renal
# TK-10 renal = test system: TK-10 renal
# KM12 colon = test system: KM12 colon
# SNB-75 CNS = test system: SNB-75 CNS
# K-562 leukemia = test system: K-562 leukemia
# SF-295 CNS = test system: SF-295 CNS
# SK-MEL-28 melanoma = test system: SK-MEL-28 melanoma
# SR leukemia = test system: SR leukemia
# MDA-MB-435 melanoma = test system: MDA-MB-435 melanoma
# PC-3 prostate = test system: PC-3 prostate
# SNB-19 CNS = test system: SNB-19 CNS
# A549 NSCLC = test system: A549 NSCLC
# SK-MEL-5 melanoma = test system: SK-MEL-5 melanoma
# NCI-H460 NSCLC = test system: NCI-H460 NSCLC
# UO-31 renal = test system: UO-31 renal
# HT29 colon = test system: HT29 colon
# CCRF-CEM leukemia = test system: CCRF-CEM leukemia
# HOP-92 NSCLC = test system: HOP-92 NSCLC
# A498 renal = test system: A498 renal
# HCT-15 colon = test system: HCT-15 colon
# HCT-116 colon = test system: HCT-116 colon
# HL-60(TB) leukemia = test system: HL-60(TB) leukemia
# SK-OV-3 ovarian = test system: SK-OV-3 ovarian
# RXF 393 renal = test system: RXF 393 renal
# OVCAR-3 ovarian = test system: OVCAR-3 ovarian
# OVCAR-5 ovarian = test system: OVCAR-5 ovarian
# EKVX NSCLC = test system: EKVX NSCLC
# MALME-3M melanoma = test system: MALME-3M melanoma
# ACHN renal = test system: ACHN renal
# U251 glioblastoma = test system: U251 glioblastoma
# SF-268 CNS = test system: SF-268 CNS
# MOLT-4 leukemia = test system: MOLT-4 leukemia
# NCI-H522 lung = test system: NCI-H522 lung
# 786-0 renal = test system: 786-0 renal
# BT-549 breast = test system: BT-549 breast
# NCI-H23 lung = test system: NCI-H23 lung
# SK-MEL-2 melanoma = test system: SK-MEL-2 melanoma
# NCI-H226 lung = test system: NCI-H226 lung
# MDA-MB-231 breast = test system: MDA-MB-231 breast
# IGROV1 ovarian = test system: IGROV1 ovarian
# LOX IMVI melanoma = test system: LOX IMVI melanoma
# NCI-H322M lung = test system: NCI-H322M lung
# OVCAR-4 ovarian = test system: OVCAR-4 ovarian
# HOP-62 NSCLC = test system: HOP-62 NSCLC
compound,measurement,setting,value
O=C1NC(=O)[C@@H](c2cn3c4c(cccc24)CCC3)[C@@H]1c1c[nH]c2ccccc12,GI50,COLO 205 colon,281 nM
same,TGI,COLO 205 colon,7770 nM
same,GI50,CAKI-1 renal,71.2 nM
same,TGI,CAKI-1 renal,12000 nM
same,GI50,NCI/ADR-RES ovarian,203 nM
same,TGI,NCI/ADR-RES ovarian,787 nM
same,TGI,HCC-2998 colon,1260 nM
same,GI50,RPMI-8226 leukemia,154 nM
same,TGI,RPMI-8226 leukemia,308 nM
same,GI50,UACC-62 melanoma,96.9 nM
same,TGI,UACC-62 melanoma,525 nM
same,GI50,MDA-MB-468 breast,53.3 nM
same,TGI,MDA-MB-468 breast,204 nM
same,GI50,MCF7 breast,141 nM
same,TGI,MCF7 breast,11600 nM
same,GI50,SF-539 CNS,244 nM
same,TGI,SF-539 CNS,1070 nM
same,GI50,HS 578T breast,123 nM
same,TGI,HS 578T breast,295 nM
same,GI50,DU-145 prostate,451 nM
same,TGI,DU-145 prostate,2990 nM
same,GI50,SN12C renal,401 nM
same,TGI,SN12C renal,12700 nM
same,GI50,TK-10 renal,420 nM
same,TGI,TK-10 renal,15700 nM
same,GI50,KM12 colon,28 nM
same,TGI,KM12 colon,1990 nM
same,GI50,SNB-75 CNS,246 nM
same,TGI,SNB-75 CNS,10100 nM
same,GI50,K-562 leukemia,21.5 nM
same,TGI,K-562 leukemia,373 nM
same,GI50,SF-295 CNS,246 nM
same,TGI,SF-295 CNS,1230 nM
same,GI50,SK-MEL-28 melanoma,311 nM
same,TGI,SK-MEL-28 melanoma,16600 nM
same,TGI,SR leukemia,14.9 nM
same,GI50,MDA-MB-435 melanoma,24.9 nM
same,TGI,MDA-MB-435 melanoma,141 nM
same,GI50,PC-3 prostate,145 nM
same,TGI,PC-3 prostate,8340 nM
same,GI50,SNB-19 CNS,347 nM
same,TGI,SNB-19 CNS,12000 nM
same,GI50,A549 NSCLC,413 nM
same,TGI,A549 NSCLC,14100 nM
same,GI50,SK-MEL-5 melanoma,115 nM
same,TGI,SK-MEL-5 melanoma,595 nM
same,GI50,NCI-H460 NSCLC,155 nM
same,TGI,NCI-H460 NSCLC,630 nM
same,GI50,UO-31 renal,365 nM
same,TGI,UO-31 renal,16700 nM
same,GI50,HT29 colon,180 nM
same,TGI,HT29 colon,494 nM
same,GI50,CCRF-CEM leukemia,119 nM
same,TGI,CCRF-CEM leukemia,246 nM
same,GI50,HOP-92 NSCLC,410 nM
same,TGI,HOP-92 NSCLC,10700 nM
same,GI50,A498 renal,307 nM
same,TGI,A498 renal,8830 nM
same,GI50,HCT-15 colon,40.6 nM
same,TGI,HCT-15 colon,4940 nM
same,GI50,HCT-116 colon,285 nM
same,TGI,HCT-116 colon,3630 nM
same,GI50,HL-60(TB) leukemia,124 nM
same,TGI,HL-60(TB) leukemia,252 nM
same,GI50,SK-OV-3 ovarian,184 nM
same,TGI,SK-OV-3 ovarian,3710 nM
same,GI50,RXF 393 renal,26.8 nM
same,TGI,RXF 393 renal,380 nM
same,GI50,OVCAR-3 ovarian,21.9 nM
same,TGI,OVCAR-3 ovarian,149 nM
same,GI50,OVCAR-5 ovarian,1620 nM
same,TGI,OVCAR-5 ovarian,17300 nM
same,GI50,EKVX NSCLC,340 nM
same,TGI,EKVX NSCLC,13900 nM
same,GI50,MALME-3M melanoma,260 nM
same,TGI,MALME-3M melanoma,11500 nM
same,GI50,ACHN renal,409 nM
same,TGI,ACHN renal,14500 nM
same,GI50,U251 glioblastoma,280 nM
same,TGI,U251 glioblastoma,1790 nM
same,GI50,SF-268 CNS,281 nM
same,TGI,SF-268 CNS,2700 nM
same,GI50,MOLT-4 leukemia,52 nM
same,TGI,MOLT-4 leukemia,199 nM
same,GI50,NCI-H522 lung,13.2 nM
same,TGI,NCI-H522 lung,93.7 nM
same,GI50,786-0 renal,332 nM
same,TGI,786-0 renal,12400 nM
same,GI50,BT-549 breast,154 nM
same,TGI,BT-549 breast,718 nM
same,GI50,NCI-H23 lung,269 nM
same,TGI,NCI-H23 lung,6960 nM
same,GI50,SK-MEL-2 melanoma,256 nM
same,TGI,SK-MEL-2 melanoma,497 nM
same,GI50,NCI-H226 lung,400 nM
same,TGI,NCI-H226 lung,7390 nM
same,GI50,MDA-MB-231 breast,398 nM
same,TGI,MDA-MB-231 breast,15400 nM
same,GI50,IGROV1 ovarian,403 nM
same,TGI,IGROV1 ovarian,12400 nM
same,GI50,LOX IMVI melanoma,453 nM
same,TGI,LOX IMVI melanoma,2100 nM
same,GI50,NCI-H322M lung,558 nM
same,TGI,NCI-H322M lung,13800 nM
same,GI50,OVCAR-4 ovarian,2160 nM
same,TGI,OVCAR-4 ovarian,20700 nM
same,GI50,HOP-62 NSCLC,252 nM
same,TGI,HOP-62 NSCLC,11800 nM
